Laboratory results from ChEMBL document CHEMBL4028869, “Synthesis and Bioevaluation of Macrocycle-Polyamine Conjugates as Cell Migration Inhibitors” (J Med Chem, 2017).
pIC50: −log10 of the molar value. Each block holds one compound with its values, some of them ahead of it.

Experiments:
[1] = Antimigratory activity against human L3.6p1 cells at 1 uM after 24 hrs in presence of amine oxidase inhibitor aminoguanidine by scratch assay relative to control; format: functional; conditions: L3.6p1, 24 h
[2] = Solubility in water; format: physicochemical; conditions: buffer
[3] = Antiproliferative activity against human L3.6p1 cells after 48 hrs in presence of amine oxidase inhibitor aminoguanidine by MTS assay; format: functional, cell-based; conditions: for pIC50: Homo sapiens, L3.6p1, 48 h
[4] = Substrate activity at PTS in CHO cells assessed as reduction in cell viability after 48 hrs in presence of aminoguanidine by MTS assay; format: cell-based; conditions: Cricetulus griseus
CHO-MG = test: Cytotoxicity against CHO-MG cells assessed as reduction in cell viability after 48 hrs in presence of aminoguanidine by MTS assay; format: cell-based; conditions: Cricetulus griseus
[5] = Selectivity ratio of IC50 for CHO-MG cells to IC50 for PTS in CHO cells; set-up: species or system Cricetulus griseus
Mus musculus [6] = species: Mus musculus; test: Increase in SGMS activity in mouse PancO2 cell lysates assessed as induction of NBD-sphingomyelin production at 0.5 uM using C12-NBD-ceramide substrate after 72 hrs by TLC relative to control
Mus musculus [7] = species: Mus musculus; test: Increase in SGMS activity in mouse PancO2 cell lysates assessed as induction of NBD-sphingomyelin production at 1 uM using C12-NBD-ceramide substrate after 72 hrs by TLC relative to control
[8] = Antimigratory activity against human L3.6p1 cells at 0.5 uM after 24 hrs in presence of amine oxidase inhibitor aminoguanidine by scratch assay relative to control; format: functional; conditions: L3.6p1, 24 h
[9] = Modulation of sphingomyelin pool in human L3.6p1 cells assessed as N25:1 level per mg protein at 500 nM after 48 hrs (reference value: 0.02 +/- 0.01 nmol); format: functional
[10] = Modulation of ceramide pool in human L3.6p1 cells assessed as N16:0 level per mg protein at 500 nM after 48 hrs (reference value: 0.08 +/- 0.01 nmol); format: functional
[11] = Modulation of sphingomyelin pool in human L3.6p1 cells assessed as N23:2 level per mg protein at 500 nM after 48 hrs (reference value: 0.01 nmol); format: functional
[12] = Modulation of sphingomyelin pool in human L3.6p1 cells assessed as N25:0 level per mg protein at 500 nM after 48 hrs (reference value: 0.01 nmol); format: functional
[13] = Modulation of sphingomyelin pool in human L3.6p1 cells assessed as N18:0 level per mg protein at 500 nM after 48 hrs (reference value: 0.19 +/- 0.01 nmol); format: functional
[14] = Modulation of ceramide pool in human L3.6p1 cells assessed as total ceramide level per mg protein at 500 nM after 48 hrs (reference value: 0.62 +/- 0.10 nmol); format: functional
[15] = Modulation of sphingomyelin pool in human L3.6p1 cells assessed as N16:0 level per mg protein at 500 nM after 48 hrs (reference value: 2.60 +/- 0.06 nmol); format: functional
[16] = Modulation of sphingomyelin pool in human L3.6p1 cells assessed as N21:0 level per mg protein at 500 nM after 48 hrs (reference value: 0.03 nmol); format: functional
[17] = Modulation of sphingomyelin pool in human L3.6p1 cells assessed as N24:0 level per mg protein at 500 nM after 48 hrs (reference value: 0.32 +/- 0.01 nmol); format: functional
[18] = Modulation of sphingomyelin pool in human L3.6p1 cells assessed as N22:2 level per mg protein at 500 nM after 48 hrs (reference value: 0.01 nmol); format: functional
[19] = Modulation of sphingomyelin pool in human L3.6p1 cells assessed as N22:1 level per mg protein at 500 nM after 48 hrs (reference value: 0.17 +/- 0.01 nmol); format: functional
[20] = Modulation of sphingomyelin pool in human L3.6p1 cells assessed as N15:0 level per mg protein at 500 nM after 48 hrs (reference value: 0.12 nmol); format: functional
[21] = Modulation of sphingomyelin pool in human L3.6p1 cells assessed as N26:1 level per mg protein at 500 nM after 48 hrs (reference value: 0.02 nmol); format: functional
[22] = Modulation of sphingomyelin pool in human L3.6p1 cells assessed as N20:0 level per mg protein at 500 nM after 48 hrs (reference value: 0.06 +/- 0.01 nmol); format: functional
[23] = Modulation of sphingomyelin pool in human L3.6p1 cells assessed as N17:0 level per mg protein at 500 nM after 48 hrs (reference value: 0.05 +/- 0.01 nmol); format: functional
[24] = Modulation of sphingomyelin pool in human L3.6p1 cells assessed as N23:0 level per mg protein at 500 nM after 48 hrs (reference value: 0.07 nmol); format: functional
[25] = Modulation of sphingomyelin pool in human L3.6p1 cells assessed as N18:1 level per mg protein at 500 nM after 48 hrs (reference value: 0.07 nmol); format: functional
[26] = Modulation of sphingomyelin pool in human L3.6p1 cells assessed as N14:0 level per mg protein at 500 nM after 48 hrs (reference value: 0.13 +/- 0.01 nmol); format: functional
[27] = Modulation of sphingomyelin pool in human L3.6p1 cells assessed as N24:1 level per mg protein at 500 nM after 48 hrs (reference value: 1.07 +/- 0.03 nmol); format: functional
[28] = Modulation of ceramide pool in human L3.6p1 cells assessed as N24:1 level per mg protein at 500 nM after 48 hrs (reference value: 0.37 +/- 0.06 nmol); format: functional
[29] = Modulation of sphingomyelin pool in human L3.6p1 cells assessed as N24:2 level per mg protein at 500 nM after 48 hrs (reference value: 0.30 +/- 0.01 nmol); format: functional
[30] = Modulation of sphingomyelin pool in human L3.6p1 cells assessed as N22:0 level per mg protein at 500 nM after 48 hrs (reference value: 0.23 +/- 0.01 nmol); format: functional
[31] = Modulation of sphingomyelin pool in human L3.6p1 cells assessed as N19:0 level per mg protein at 500 nM after 48 hrs (reference value: 0.01 nmol); format: functional
[32] = Modulation of sphingomyelin pool in human L3.6p1 cells assessed as N20:1 level per mg protein at 500 nM after 48 hrs (reference value: 0.02 nmol); format: functional
[33] = Modulation of sphingomyelin pool in human L3.6p1 cells assessed as N16:1 level per mg protein at 500 nM after 48 hrs (reference value: 0.28 +/- 0.01 nmol); format: functional
[34] = Modulation of sphingomyelin pool in human L3.6p1 cells assessed as N23:1 level per mg protein at 500 nM after 48 hrs (reference value: 0.10 nmol); format: functional
[35] = Modulation of sphingomyelin pool in human L3.6p1 cells assessed as total sphingomyelin level per mg protein at 500 nM after 48 hrs (reference value: 5.91 +/- 0.11 nmol); format: functional
[36] = Modulation of ceramide pool in human L3.6p1 cells assessed as N24:0 level per mg protein at 500 nM after 48 hrs (reference value: 0.16 +/- 0.04 nmol); format: functional

- solubility [2]: Insoluble
Structure (SMILES): OCC1CCCCCCCCCCCCCC1
- inhibition at 1 µM [1]: -37.2%
- IC5 [3]: 8.4 µM
- pIC50 [3]: 4.38
- pIC50 [4]: < 4.00
- pIC50 (CHO-MG): < 4.00

Structure (SMILES): NCCNCCNCCN [TRIENTINE]
- inhibition at 1 µM [1]: 0%

- Activity (Mus musculus [6]): 75%
- Activity (Mus musculus [7]): 82%
Structure (SMILES): Cl.Cl.Cl.NCCCNCCCNC1CCCCCCCCCCCCCC1
- Ratio IC50 [5]: 2.1

Structure (SMILES): Cl.Cl.Cl.NCCCCNCCCCNCc1c2ccccc2cc2ccccc12
- Ratio IC50 [5]: 148

Structure (SMILES): NCCNCCN
- inhibition at 1 µM [1]: 0%

Structure (SMILES): Cl.Cl.NCCNCc1c2ccccc2cc2ccccc12
- inhibition at 0.5 µM [8]: 6.2%
- IC5 [3]: 4.15 µM
- pIC50 [3]: 4.62
- Ratio IC50 [5]: 5.8
- pIC50 [4]: 5.71
- pIC50 (CHO-MG): 4.95

- Activity (Mus musculus [6]): 89%
- Activity (Mus musculus [7]): 75%
Structure (SMILES): Cl.Cl.Cl.NCCCNCCCN1CCCCCCCCCCCCCC1
- Activity [9]: 0.03 nmol
- Activity [10]: 0.17 nmol
- Activity [11]: 0.01 nmol
- inhibition at 1 µM [1]: 39.8%
- Activity [12]: 0.03 nmol
- Activity [13]: 0.32 nmol
- Activity [14]: 0.89 nmol
- Activity [15]: 3.26 nmol
- inhibition at 0.5 µM [8]: 20.6%
- Activity [16]: 0.05 nmol
- IC5 [3]: 0.6 µM
- pIC50 [3]: 6.00
- Ratio IC50 [5]: 1
- Activity [17]: 0.39 nmol
- Activity [18]: 0.02 nmol
- Activity [19]: 0.27 nmol
- Activity [20]: 0.14 nmol
- Activity [21]: 0.04 nmol
- Activity [22]: 0.1 nmol
- Activity [23]: 0.06 nmol
- Activity [24]: 0.1 nmol
- Activity [25]: 0.11 nmol
- Activity [26]: 0.14 nmol
- Activity [27]: 1.49 nmol
- Activity [28]: 0.51 nmol
- Activity [29]: 0.41 nmol
- Activity [30]: 0.35 nmol
- Activity [31]: 0.01 nmol
- Activity [32]: 0.03 nmol
- Activity [33]: 0.33 nmol
- Activity [34]: 0.14 nmol
- Activity [35]: 7.84 nmol
- Activity [36]: 0.2 nmol

Structure (SMILES): Cl.Cl.Cl.NCCNCCNCC1CCCCCCCCCCCCCC1
- inhibition at 1 µM [1]: 26.8%
- inhibition at 0.5 µM [8]: 10.2%
- IC5 [3]: 0.6 µM
- pIC50 [3]: 5.90
- Ratio IC50 [5]: 1
- pIC50 [4]: 5.61
- pIC50 (CHO-MG): 5.59

Structure (SMILES): Cl.Cl.NCCNCC1CCCCCCCCCCCCCC1
- inhibition at 1 µM [1]: 26.2%
- inhibition at 0.5 µM [8]: 6.2%
- IC5 [3]: 0.6 µM
- pIC50 [3]: 5.84
- Ratio IC50 [5]: 0.9
- pIC50 [4]: 5.58
- pIC50 (CHO-MG): 5.63

Structure (SMILES): Cl.Cl.Cl.Cl.NCCNCCNCCNCC1CCCCCCCCCCCCCC1
- Activity [9]: 0.02 nmol
- Activity [10]: 0.09 nmol
- Activity [11]: 0.01 nmol
- inhibition at 1 µM [1]: 16.8%
- Activity [12]: 0.02 nmol
- Activity [13]: 0.24 nmol
- Activity [14]: 0.49 nmol
- Activity [15]: 2.66 nmol
- inhibition at 0.5 µM [8]: 6.1%
- Activity [16]: 0.03 nmol
- IC5 [3]: 0.92 µM
- pIC50 [3]: 5.79
- Ratio IC50 [5]: 1.1
- Activity [17]: 0.32 nmol
- Activity [18]: 0.02 nmol
- Activity [19]: 0.19 nmol
- Activity [20]: 0.12 nmol
- Activity [21]: 0.03 nmol
- pIC50 [4]: 5.63
- Activity [22]: 0.08 nmol
- Activity [23]: 0.05 nmol
- Activity [24]: 0.08 nmol
- Activity [25]: 0.09 nmol
- Activity [26]: 0.13 nmol
- Activity [27]: 1.15 nmol
- pIC50 (CHO-MG): 5.58
- Activity [28]: 0.28 nmol
- Activity [29]: 0.31 nmol
- Activity [30]: 0.28 nmol
- Activity [31]: 0.01 nmol
- Activity [32]: 0.02 nmol
- Activity [33]: 0.28 nmol
- Activity [34]: 0.11 nmol
- Activity [35]: 6.25 nmol
- Activity [36]: 0.11 nmol

Structure (SMILES): Cl.Cl.Cl.NCCCNCCCNCCC1CCCCCCCCCCCCCC1
- inhibition at 1 µM [1]: 1.5%
- inhibition at 0.5 µM [8]: -15.5%
- IC5 [3]: 1.64 µM
- pIC50 [3]: 5.48
- Ratio IC50 [5]: 1.1
- pIC50 [4]: 5.60
- pIC50 (CHO-MG): 5.55

- Activity (Mus musculus [6]): 88%
- Activity (Mus musculus [7]): 97%
Structure (SMILES): Cl.Cl.Cl.NCCCNCCCNCC1CCCCCCCCCCCCCC1
- Activity [9]: 0.03 nmol
- Activity [10]: 0.11 nmol
- Activity [11]: 0.01 nmol
- inhibition at 1 µM [1]: 29.9%
- Activity [12]: 0.02 nmol
- Activity [13]: 0.27 nmol
- Activity [14]: 0.63 nmol
- Activity [15]: 2.84 nmol
- inhibition at 0.5 µM [8]: 20.2%
- Activity [16]: 0.04 nmol
- IC5 [3]: 80 µM
- pIC50 [3]: 4.05
- Ratio IC50 [5]: 1
- Activity [17]: 0.36 nmol
- Activity [18]: 0.02 nmol
- Activity [19]: 0.22 nmol
- Activity [20]: 0.13 nmol
- Activity [21]: 0.03 nmol
- Activity [22]: 0.09 nmol
- Activity [23]: 0.06 nmol
- Activity [24]: 0.09 nmol
- Activity [25]: 0.1 nmol
- Activity [26]: 0.13 nmol
- Activity [27]: 1.22 nmol
- Activity [28]: 0.37 nmol
- Activity [29]: 0.36 nmol
- Activity [30]: 0.31 nmol
- Activity [31]: 0.01 nmol
- Activity [32]: 0.03 nmol
- Activity [33]: 0.3 nmol
- Activity [34]: 0.12 nmol
- Activity [35]: 6.79 nmol
- Activity [36]: 0.14 nmol
